According to ChEMBL document CHEMBL1629678, “Apricitabine does not select additional drug resistance mutations in tissue culture in human immunodeficiency virus type 1 variants containing K65R, M184V, or M184V plus thymidine analogue mutations” (Antimicrob Agents Chemother, 2009):
pIC50: −log10 of the molar value.

Tests used:
[1] = tested on: Human immunodeficiency virus 1; test: Selectivity ratio of IC50 for HIV1 HXB-2D harboring reverse transcriptase M184V, M41L and T215Y mutant gene to IC50 for wild type HIV1 HXB-2D infected in human cord blood mononuclear cells; type: functional
[2] = tested on: Human immunodeficiency virus 1; test: Antiviral activity against HIV1 HXB-2D harboring reverse transcriptase M184V, M41L and T215Y mutant gene infected in human cord blood mononuclear cells; type: functional, organism-based; settings: Human immunodeficiency virus 1, HXB-2D
[3] = tested on: Human immunodeficiency virus 1; test: Selectivity ratio of IC50 for HIV1 HXB-2D harboring reverse transcriptase M184V mutant gene to IC50 for wild type HIV1 HXB-2D infected in human cord blood mononuclear cells; type: functional
[4] = tested on: Human immunodeficiency virus 1; test: Selectivity ratio of IC50 for 51 week drug adapted HIV1 HXB-2D harboring reverse transcriptase M184V/M, K65R mutant gene to IC50 for HIV1 HXB-2D harboring wild type reverse transcriptase; type: functional
[5] = tested on: Human immunodeficiency virus 1; test: Selectivity ratio of IC50 for 32 week drug adapted HIV1 HXB-2D harboring reverse transcriptase K65R mutant gene to IC50 for HIV1 HXB-2D harboring reverse transcriptase K65R mutant gene; type: functional
[6] = tested on: Human immunodeficiency virus 1; test: Selectivity ratio of IC50 for 32 week drug adapted HIV1 HXB-2D harboring wild type reverse transcriptase to IC50 for HIV1 HXB-2D harboring wild type reverse transcriptase; type: functional
[7] = tested on: Human immunodeficiency virus 1; test: Selectivity ratio of IC50 for 20 week drug adapted HIV1 HXB-2D harboring reverse transcriptase M184V, M41L, T215Y mutant gene to IC50 for HIV1 HXB-2D harboring reverse transcriptase M184V, M41L, T215Y mutant gene; type: functional
[8] = tested on: Human immunodeficiency virus 1; test: Selectivity ratio of IC50 for 51 week drug adapted HIV1 HXB-2D harboring reverse transcriptase M184V, K65R mutant gene to IC50 for HIV1 HXB-2D harboring wild type reverse transcriptase; type: functional
[9] = tested on: Human immunodeficiency virus 1; test: Selectivity ratio of IC50 for 17 week drug adapted HIV1 HXB-2D harboring reverse transcriptase S68S/G mutant gene to IC50 for HIV1 HXB-2D harboring reverse transcriptase K65R mutant gene; type: functional
[10] = tested on: Human immunodeficiency virus 1; test: Antiviral activity against wild type HIV1 HXB-2D infected in human cord blood mononuclear cells; type: functional, organism-based; settings: Human immunodeficiency virus 1, HXB-2D
[11] = tested on: Human immunodeficiency virus 1; test: Selectivity ratio of IC50 for 8 week drug adapted HIV1 HXB-2D harboring reverse transcriptase F87L/F mutant gene to IC50 for HIV1 HXB-2D harboring reverse transcriptase M184V mutant gene; type: functional
[12] = tested on: Human immunodeficiency virus 1; test: Selectivity ratio of IC50 for 8 week drug adapted HIV1 HXB-2D harboring reverse transcriptase K65R mutant gene to IC50 for HIV1 HXB-2D harboring reverse transcriptase K65R mutant gene; type: functional
[13] = tested on: Human immunodeficiency virus 1; test: Selectivity ratio of IC50 for 38 week drug adapted HIV1 HXB-2D harboring reverse transcriptase S68S/G mutant gene to IC50 for HIV1 HXB-2D harboring reverse transcriptase K65R mutant gene; type: functional
[14] = tested on: Human immunodeficiency virus 1; test: Selectivity ratio of IC50 for 32 week drug adapted HIV1 HXB-2D harboring reverse transcriptase V101I/V, D177N, E194G mutant gene to IC50 for HIV1 HXB-2D harboring reverse transcriptase M184V mutant gene; type: functional
[15] = tested on: Human immunodeficiency virus 1; test: Selectivity ratio of IC50 for 38 week drug adapted HIV1 HXB-2D harboring reverse transcriptase V101I/V, D177N, E194G mutant gene to IC50 for HIV1 HXB-2D harboring reverse transcriptase M184V mutant gene; type: functional
[16] = tested on: Human immunodeficiency virus 1; test: Selectivity ratio of IC50 for HIV1 HXB-2D harboring reverse transcriptase K65R mutant gene to IC50 for wild type HIV1 HXB-2D infected in human cord blood mononuclear cells; type: functional
[17] = tested on: Human immunodeficiency virus 1; test: Selectivity ratio of IC50 for 17 week drug adapted HIV1 HXB-2D harboring reverse transcriptase D237N mutant gene to IC50 for HIV1 HXB-2D harboring wild type reverse transcriptase; type: functional
[18] = tested on: Human immunodeficiency virus 1; test: Selectivity ratio of IC50 for 48 week drug adapted HIV1 HXB-2D harboring reverse transcriptase M184V mutant gene to IC50 for HIV1 HXB-2D harboring wild type reverse transcriptase; type: functional
[19] = tested on: Human immunodeficiency virus 1; test: Selectivity ratio of IC50 for 8 week drug adapted HIV1 HXB-2D harboring reverse transcriptase D237N mutant gene to IC50 for HIV1 HXB-2D harboring wild type reverse transcriptase; type: functional
[20] = tested on: Human immunodeficiency virus 1; test: Selectivity ratio of IC50 for 8 week drug adapted HIV1 HXB-2D harboring reverse transcriptase M184V, M41L, T215Y mutant gene to IC50 for HIV1 HXB-2D harboring reverse transcriptase M184V, M41L, T215Y mutant gene; type: functional
[21] = tested on: Human immunodeficiency virus 1; test: Antiviral activity against HIV1 HXB-2D harboring reverse transcriptase M184V mutant gene infected in human cord blood mononuclear cells; type: functional, organism-based; settings: Human immunodeficiency virus 1, HXB-2D
[22] = tested on: Human immunodeficiency virus 1; test: Antiviral activity against HIV1 HXB-2D harboring reverse transcriptase K65R mutant gene infected in human cord blood mononuclear cells; type: functional, organism-based; settings: Human immunodeficiency virus 1, HXB-2D
[23] = tested on: Human immunodeficiency virus 1; test: Selectivity ratio of IC50 for 17 week drug adapted HIV1 HXB-2D harboring reverse transcriptase D177N/D, E194E/G mutant gene to IC50 for HIV1 HXB-2D harboring reverse transcriptase M184V mutant gene; type: functional
[24] = tested on: Human immunodeficiency virus 1; test: Selectivity ratio of IC50 for 38 week drug adapted HIV1 HXB-2D harboring reverse transcriptase I50T/II, D237N/D mutant gene to IC50 for HIV1 HXB-2D harboring wild type reverse transcriptase; type: functional
[25] = tested on: Human immunodeficiency virus 1; test: Selectivity ratio of IC50 for 28 week drug adapted HIV1 HXB-2D harboring reverse transcriptase M184V, M41L, T215Y mutant gene to IC50 for HIV1 HXB-2D harboring reverse transcriptase M184V, M41L, T215Y mutant gene; type: functional

Nc1ccn([C@H]2CO[C@@H](CO)S2)c(=O)n1 [APRICITABINE]
fold change (FC) [1]: 1.77 | pIC50 [2]: 4.87 | fold change (FC) [3]: 2.37 | fold change (FC) [4]: 13.3 | fold change (FC) [5]: 2.5 | fold change (FC) [6]: 4 | fold change (FC) [7]: 3.7 | fold change (FC) [8]: 8 | fold change (FC) [9]: 0.5 | pIC50 [10]: 5.12 | fold change (FC) [11]: 1.7 | fold change (FC) [12]: 0.5 | fold change (FC) [13]: 3 | fold change (FC) [14]: 3.4 | fold change (FC) [15]: 3.4 | fold change (FC) [16]: 2.69 | fold change (FC) [17]: 1.3 | fold change (FC) [18]: 8 | fold change (FC) [19]: 4 | fold change (FC) [20]: 0.7 | pIC50 [21]: 4.75 | pIC50 [22]: 4.69 | fold change (FC) [23]: 1.1 | fold change (FC) [24]: 8 | fold change (FC) [25]: 3.7
